Source: patent US20230265151A1, “GIP/GLP1 CO-AGONIST COMPOUNDS” (priority 2020, published 2023)
Where two headings read alike, the source gives them in different places.

What was measured:
Assay type in all cases: cell-based
hGIPR = molecular target: T1, hGIPR (Homo sapiens, UniProt P48546); test: Functional cAMP formation (HTRF) in HEK-293 clonal cells expressing hGIPR, 0.1% bovine casein, without or with 1.0% human serum albumin; settings: for Emax: read-out: hGIPR Emax, % ± SEM; for EC50: geometric mean, read-out: hGIPR EC50, nM (SEM, n)
T1 construct: expressed in transfected cells
T1 sequence (P48546 22-466): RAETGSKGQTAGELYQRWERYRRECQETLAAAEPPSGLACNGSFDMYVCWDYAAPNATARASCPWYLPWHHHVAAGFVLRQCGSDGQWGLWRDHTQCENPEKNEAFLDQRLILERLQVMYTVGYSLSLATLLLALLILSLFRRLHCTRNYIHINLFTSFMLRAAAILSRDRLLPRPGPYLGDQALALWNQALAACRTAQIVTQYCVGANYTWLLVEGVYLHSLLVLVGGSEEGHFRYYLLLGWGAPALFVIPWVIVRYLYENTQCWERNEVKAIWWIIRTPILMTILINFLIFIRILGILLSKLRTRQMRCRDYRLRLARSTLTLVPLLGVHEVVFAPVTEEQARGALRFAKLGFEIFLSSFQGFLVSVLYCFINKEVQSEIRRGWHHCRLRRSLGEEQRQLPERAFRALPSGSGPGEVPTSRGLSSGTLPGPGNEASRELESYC
Method in brief: (§1)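 Readings of the HTRF 665/620 nm ratio, which falls as cAMP rises, were converted to nM cAMP using a standard curve after 30 min peptide exposure at 37° C.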

hGCGR = molecular target: T2, hGCGR (Homo sapiens, UniProt P47871); test: Functional cAMP formation (HTRF) in HEK-293 clonal cells expressing hGCGR, 0.1% bovine casein, without or with 1.0% human serum albumin; settings: read-out: hGCGR EC50, nM (SEM, n)
T2 construct: expressed in transfected cells
T2 sequence (P47871 26-477): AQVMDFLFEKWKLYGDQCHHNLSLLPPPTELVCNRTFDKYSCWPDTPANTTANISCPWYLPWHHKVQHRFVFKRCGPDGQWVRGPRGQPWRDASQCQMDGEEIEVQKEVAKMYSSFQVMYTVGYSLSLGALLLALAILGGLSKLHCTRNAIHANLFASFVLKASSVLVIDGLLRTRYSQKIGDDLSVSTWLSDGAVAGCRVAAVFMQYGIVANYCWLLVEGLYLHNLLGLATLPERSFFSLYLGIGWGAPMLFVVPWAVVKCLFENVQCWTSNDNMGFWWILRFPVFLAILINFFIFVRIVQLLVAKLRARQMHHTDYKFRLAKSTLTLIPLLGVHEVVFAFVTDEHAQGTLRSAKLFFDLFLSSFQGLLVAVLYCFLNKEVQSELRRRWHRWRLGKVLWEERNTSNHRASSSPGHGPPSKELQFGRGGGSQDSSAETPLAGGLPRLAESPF
Method in brief: as §1

hGLP-1R = hGLP-1R (Homo sapiens, UniProt P43220); test: Functional cAMP formation (HTRF) in HEK-293 clonal cells expressing hGLP-1R, 0.1% bovine casein, without or with 1.0% human serum albumin; parameters: expressed in transfected cells; settings: for EC50: geometric mean, read-out: hGLP-1R EC50, nM (SEM, n); for Emax: read-out: hGLP-1R Emax, % ± SEM
Sequence of hGLP-1R (P43220 24-463): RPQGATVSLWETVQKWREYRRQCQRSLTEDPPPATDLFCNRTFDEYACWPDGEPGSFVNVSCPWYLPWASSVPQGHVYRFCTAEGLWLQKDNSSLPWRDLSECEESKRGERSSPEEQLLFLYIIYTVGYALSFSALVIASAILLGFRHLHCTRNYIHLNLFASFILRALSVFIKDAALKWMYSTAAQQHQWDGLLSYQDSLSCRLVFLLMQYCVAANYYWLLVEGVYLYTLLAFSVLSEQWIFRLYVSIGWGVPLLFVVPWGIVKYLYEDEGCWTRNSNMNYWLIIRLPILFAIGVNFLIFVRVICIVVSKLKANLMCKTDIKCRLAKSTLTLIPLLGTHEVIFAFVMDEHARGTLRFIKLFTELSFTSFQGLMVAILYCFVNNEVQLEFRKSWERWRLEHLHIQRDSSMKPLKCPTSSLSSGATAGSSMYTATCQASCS
Method in brief: as §1

[1] = HEK293, 0.1% bovine casein and 1.0% human serum albumin, 37° C., percent of maximal response to GIP(1-42)NH2
[2] = HEK293, percent of maximal response to GIP(1-42)NH2, 37° C., 0.1% bovine casein, arithmetic mean
[3] = cAMP, incubated at 37° C., 0.1% bovine casein (no human serum albumin)
[4] = 0.1% bovine casein and 1.0% human serum albumin, 37° C., geometric mean
[5] = cAMP, incubated at 37° C., 0.1% bovine casein (no human serum albumin), geometric mean
[6] = 0.1% bovine casein and 1.0% human serum albumin, 37° C.
[7] = HEK293, 0.1% bovine casein and 1.0% human serum albumin, 37° C., percent of maximal response to GLP-1(7-36)NH2
[8] = cAMP, 37° C., 0.1% bovine casein (no human serum albumin)
[9] = cAMP, 37° C., 0.1% bovine casein (no human serum albumin), geometric mean
[10] = HEK293, cAMP, 37° C., 0.1% bovine casein, percent of maximal response to GLP-1(7-36)NH2, arithmetic mean

Compound | Emax (hGIPR; [1]) | Emax (hGIPR; [2]) | EC50 (hGIPR; [3]) | EC50 (hGCGR; [4]) | EC50 (hGCGR; [5]) | EC50 (hGLP-1R; [6]) | Emax (hGLP-1R; [7]) | Emax (hGLP-1R; HEK293, percent of maximal response to GLP-1(7-36)NH2, 37° C., 0.1% bovine casein, arithmetic mean) | EC50 (hGLP-1R; [3]) | Emax (hGIPR; HEK293, cAMP, 37° C., 0.1% bovine casein and 1.0% human serum albumin, percent of maximal response to GIP(1-42)NH2) | Emax (hGIPR; HEK293, cAMP, 37° C., 0.1% bovine casein, percent of maximal response to GIP(1-42)NH2, arithmetic mean) | EC50 (hGIPR; [8]) | EC50 (hGCGR; [9]) | EC50 (hGCGR; cAMP, 37° C., 0.1% bovine casein and 1.0% human serum albumin, geometric mean (SEM, n)) | Emax (hGLP-1R; [10]) | EC50 (hGLP-1R; [8]) | EC50 (hGIPR; [6])
CC[C@H](C)[C@H](NC(=O)[C@H](CCCN)NC(=O)[C@H](CC(=O)O)NC(=O)[C@H](CC(C)C)NC(=O)[C@](C)(CC(C)C)NC(=O)[C@@H](NC(=O)[C@H](CO)NC(=O)[C@H](Cc1ccncc1)NC(=O)[C@H](CC(=O)O)NC(=O)[C@H](CO)NC(=O)[C@@H](NC(=O)[C@](C)(Cc1ccccc1F)NC(=O)[C@@H](NC(=O)CNC(=O)[C@H](CCC(=O)O)NC(=O)C(C)(C)NC(=O)[C@@H](N)Cc1ccc(O)cc1)[C@@H](C)O)[C@@H](C)O)[C@@H](C)CC)C(=O)N[C@@H](C)C(=O)N[C@@H](CCC(N)=O)C(=O)NC(C)(C)C(=O)N[C@@H](CCC(=O)O)C(=O)N[C@@H](Cc1ccccc1)C(=O)N[C@H](C(=O)N[C@@H](CCCCNC(=O)COCCOCCNC(=O)COCCOCCNC(=O)CCCCCCCCCCCCC(=O)O)C(=O)N[C@@](C)(Cc1ccc(O)cc1)C(=O)N[C@@H](CC(C)C)C(=O)N[C@H](C(=O)N[C@@H](CCCCNC(=O)COCCOCCNC(=O)COCCOCCNC(=O)CCCCCCCCCCCCC(=O)O)C(=O)NCC(=O)NCC(=O)N1CCC[C@H]1C(=O)N[C@@H](CO)C(=O)N[C@@H](CO)C(=O)NCC(=O)N[C@@H](C)C(=O)N1CCC[C@H]1C(=O)N1CCC[C@H]1C(=O)N1CCC[C@H]1C(=O)N[C@@H](CO)C(N)=O)[C@@H](C)CC)[C@@H](C)CC [Example 192] | 93.6 ± 3.98% | 96.5 ± 4.86% | 0.0375 nM | > 9950 nM | > 9950 nM | 11.2 nM | 121 ± 2.56% | 100 ± 2.34% | 0.518 nM | – | – | – | – | – | – | – | –
CC[C@H](C)[C@H](NC(=O)[C@H](Cc1ccccc1)NC(=O)[C@H](CCC(=O)O)NC(=O)C(C)(C)NC(=O)[C@H](CCC(N)=O)NC(=O)[C@H](C)NC(=O)[C@H](CCCCNC(=O)COCCOCCNC(=O)COCCOCCNC(=O)CC[C@H](NC(=O)CCCCCCCCCCCCC(=O)O)C(=O)O)NC(=O)[C@H](CCCN)NC(=O)[C@H](CC(=O)O)NC(=O)[C@H](CC(C)C)NC(=O)[C@](C)(CC(C)C)NC(=O)[C@@H](NC(=O)[C@H](CO)NC(=O)[C@H](Cc1ccncc1)NC(=O)[C@H](CC(=O)O)NC(=O)[C@H](CO)NC(=O)[C@@H](NC(=O)[C@](C)(Cc1ccccc1F)NC(=O)[C@@H](NC(=O)CNC(=O)[C@H](CCC(=O)O)NC(=O)C(C)(C)NC(=O)[C@@H](N)Cc1ccc(O)cc1)[C@@H](C)O)[C@@H](C)O)[C@@H](C)CC)C(=O)NCC(=O)N[C@@](C)(Cc1ccc(O)cc1)C(=O)N[C@@H](CC(C)C)C(=O)N[C@H](C(=O)N[C@@H](CCC(=O)O)C(=O)NCC(=O)NCC(=O)N[C@@H](CCCCNC(=O)COCCOCCNC(=O)COCCOCCNC(=O)CC[C@H](NC(=O)CCCCCCCCCCCCC(=O)O)C(=O)O)C(=O)N[C@@H](CO)C(=O)N[C@@H](CO)C(=O)NCC(=O)N[C@@H](C)C(=O)N1CCC[C@H]1C(=O)N1CCC[C@H]1C(=O)N1CCC[C@H]1C(=O)N[C@@H](CO)C(N)=O)[C@@H](C)CC [Example 104] | 95.9% | 94.9% | 0.0361 nM | > 9950 nM | > 9950 nM | 12.3 nM | 95.8% | – | – | – | – | – | – | – | – | – | –
CC[C@H](C)[C@H](NC(=O)[C@H](CC(C)C)NC(=O)[C@](C)(Cc1ccc(O)cc1)NC(=O)[C@@H](CCC(=O)O)NC(=O)[C@@H](NC(=O)[C@H](Cc1ccccc1)NC(=O)[C@H](CCCCNC(=O)COCCOCCNC(=O)COCCOCCNC(=O)CCCCCCCCCCCCC(=O)O)NC(=O)C(C)(C)NC(=O)[C@H](CCC(N)=O)NC(=O)[C@H](C)NC(=O)[C@H](CCCCNC(=O)COCCOCCNC(=O)COCCOCCNC(=O)CCCCCCCCCCCCC(=O)O)NC(=O)[C@H](CCCN)NC(=O)[C@H](CC(=O)O)NC(=O)[C@H](CC(C)C)NC(=O)[C@](C)(CC(C)C)NC(=O)[C@@H](NC(=O)C(C)(C)NC(=O)[C@H](Cc1ccncc1)NC(=O)[C@H](CC(=O)O)NC(=O)[C@H](CO)NC(=O)[C@@H](NC(=O)[C@](C)(Cc1ccccc1F)NC(=O)[C@@H](NC(=O)CNC(=O)[C@H](CCC(=O)O)NC(=O)C(C)(C)NC(=O)[C@@H](N)Cc1ccc(O)cc1)[C@@H](C)O)[C@@H](C)O)[C@@H](C)CC)[C@@H](C)CC)C(=O)N[C@@H](CCC(=O)O)C(=O)NCC(=O)NCC(=O)N1CCC[C@H]1C(=O)N[C@@H](CO)C(=O)N[C@@H](CO)C(=O)NCC(=O)N[C@@H](C)C(=O)N1CCC[C@H]1C(=O)N1CCC[C@H]1C(=O)N1CCC[C@H]1C(=O)N[C@@H](CO)C(N)=O [Example 384] | – | – | – | – | – | – | – | – | – | 83.5% | 94.5% | 0.0124 nM | > 9950 nM | > 9950 nM | 98.2% | 0.308 nM | –
CC[C@H](C)[C@H](NC(=O)[C@H](CC(C)C)NC(=O)[C@](C)(Cc1ccc(O)cc1)NC(=O)[C@@H](CCC(=O)O)NC(=O)[C@@H](NC(=O)[C@](C)(Cc1ccccc1)NC(=O)[C@H](CCC(=O)O)NC(=O)C(C)(C)NC(=O)[C@H](CCC(N)=O)NC(=O)[C@H](C)NC(=O)[C@H](CCCCNC(=O)COCCOCCNC(=O)COCCOCCNC(=O)CC[C@H](NC(=O)CCCCCCCCCCCCC(=O)O)C(=O)O)NC(=O)[C@H](CCCN)NC(=O)[C@H](CC(=O)O)NC(=O)[C@H](CC(C)C)NC(=O)[C@](C)(CC(C)C)NC(=O)[C@@H](NC(=O)C(C)(C)NC(=O)[C@@H](NC(=O)[C@H](CC(=O)O)NC(=O)[C@H](CO)NC(=O)[C@@H](NC(=O)[C@](C)(Cc1ccccc1F)NC(=O)[C@@H](NC(=O)CNC(=O)[C@H](CCC(=O)O)NC(=O)C(C)(C)NC(=O)[C@@H](N)Cc1ccc(O)cc1)[C@@H](C)O)[C@@H](C)O)C(C)C)[C@@H](C)CC)[C@@H](C)CC)C(=O)N[C@@H](CCC(=O)O)C(=O)NCC(=O)NCC(=O)N[C@@H](CCCCNC(=O)COCCOCCNC(=O)COCCOCCNC(=O)CC[C@H](NC(=O)CCCCCCCCCCCCC(=O)O)C(=O)O)C(=O)N[C@@H](CO)C(=O)N[C@@H](CO)C(=O)NCC(=O)N[C@@H](C)C(=O)N1CCC[C@H]1C(=O)N1CCC[C@H]1C(=O)N1CCC[C@H]1C(=O)N[C@@H](CO)C(N)=O [Example 93] | 92% | 99.4 ± 6.93% | – | > 9950 nM | > 9950 nM | – | 90.2% | – | – | – | – | – | – | – | – | – | –
CCCCCCCCCCCC(=O)N[C@@H](CCC(=O)NCCOCCOCC(=O)NCCOCCOCC(=O)NCCCC[C@H](NC(=O)[C@H](CO)NC(=O)[C@@H]1CCCN1C(=O)[C@@H]1CCCN1C(=O)[C@@H]1CCCN1C(=O)[C@H](C)NC(=O)CNC(=O)[C@H](CO)NC(=O)[C@H](CO)NC(=O)[C@@H]1CCCN1C(=O)CNC(=O)CNC(=O)[C@H](CCC(=O)O)NC(=O)[C@@H](NC(=O)[C@H](CC(C)C)NC(=O)[C@](C)(Cc1ccc(O)cc1)NC(=O)[C@@H](CCC(=O)O)NC(=O)[C@@H](NC(=O)[C@H](Cc1ccccc1)NC(=O)[C@H](CCC(=O)O)NC(=O)C(C)(C)NC(=O)[C@H](CCC(N)=O)NC(=O)[C@H](C)NC(=O)[C@H](CCCCNC(=O)COCCOCCNC(=O)COCCOCCNC(=O)CC[C@H](NC(=O)CCCCCCCCCCC)C(=O)O)NC(=O)[C@H](CCCN)NC(=O)[C@H](CC(=O)O)NC(=O)[C@H](CC(C)C)NC(=O)[C@](C)(CC(C)C)NC(=O)[C@@H](NC(=O)[C@H](CO)NC(=O)[C@H](Cc1ccc(OC)cc1)NC(=O)[C@H](CC(=O)O)NC(=O)[C@H](CO)NC(=O)[C@@H](NC(=O)[C@](C)(Cc1ccccc1F)NC(=O)[C@@H](NC(=O)CNC(=O)[C@H](CCC(=O)O)NC(=O)C(C)(C)NC(=O)[C@@H](N)Cc1ccc(O)cc1)[C@@H](C)O)[C@@H](C)O)[C@@H](C)CC)[C@@H](C)CC)[C@@H](C)CC)C(N)=O)C(=O)O [Example 291] | 92.9% | – | – | > 9950 nM | – | – | 100% | – | – | – | – | 0.012 nM | > 9950 nM | – | 97.6% | 0.207 nM | 0.833 nM
